Counter-ions that a name gives are not always drawn.
Experiments:
Format in all cases: cell-based
HCT116 = assay: MTS cytotoxicity testing, HCT116 cells; conditions: Homo sapiens, HCT-116; ITK/BTK null cells
Method: (§1) Cell lines: The cells were sourced from either the DSMZ (Braunschweig, Germany) or the ATCC (Middlesex, UK). They were maintained in the recommended growth medium, supplemented with 10 % fetal calf serum, antibiotics (100 U/mL penicillin and […]), 2 mM glutamine, 1 mM NaHCO3, 1 mM sodium pyruvate, and 20 mM HEPES. The cells were incubated at 37 °C in a humidified atmosphere with 5 % CO2. Cell lines were routinely verified and checked for mycoplasma contamination every two weeks to once a month.
(§2) MTS cytotoxicity testing: An MTS assay method was developed in our laboratory for routine drug screening. This technique was used to assess the cytotoxicity of compounds, and the IC50 values were determined as previously described.[27]

RAMOS = assay: MTS cytotoxicity testing, RAMOS cells; conditions: Homo sapiens, BTK high cells
Method: as §1, §2

CCRF‐CEM = assay: MTS cytotoxicity testing, CCRF‐CEM cells; conditions: Homo sapiens, ITK high cells
Method: as §1, §2

U2OS = assay: MTS cytotoxicity testing, U2OS cells; conditions: Homo sapiens, ITK/BTK null cells
Method: as §1, §2

A549 = assay: MTS cytotoxicity testing, A549 cells; conditions: Homo sapiens, ITK/BTK null cells
Method: as §1, §2

[1] = MTS cytotoxicity testing, BJ non‐cancer cells; conditions: human
Method: as §1, §2

K562 = assay: MTS cytotoxicity testing, K562 cells; conditions: Homo sapiens, BTK high cells
Method: as §1, §2

Jurkat = assay: MTS cytotoxicity testing, Jurkat cells; conditions: Homo sapiens, ITK high cells
Method: as §1, §2

[2] = MTS cytotoxicity testing, MRC‐5 non‐cancer cells; conditions: human
Method: as §1, §2

MOLT‐4 = assay: MTS cytotoxicity testing, MOLT‐4 cells; conditions: Homo sapiens, ITK high cells
Method: as §1, §2

For `O=S(=O)(c1cc(-c2ccccc2)cc2cccnc12)N1CCCCC1` [9a, 6‐phenyl‐8‐(piperidin‐1‐ylsulfonyl)quinoline], the IC50 (HCT116) was over 50 µM, the IC50 (RAMOS) was over 50 µM and the IC50 (CCRF‐CEM) was over 50 µM. For the same compound, the IC50 (U2OS) was over 50 µM, the IC50 (A549) was over 50 µM and the IC50 [1] was over 50 µM. For the same compound, the IC50 (K562) was over 50 µM, the IC50 (Jurkat) was over 50 µM and the IC50 [2] was over 50 µM. The IC50 (MOLT‐4) was over 50 µM.

`O=S(=O)(c1cc(-c2cccc(Cl)c2)cc2cccnc12)N1CCCCC1` [9b, 6‐(3‐chlorophenyl)‐8‐(piperidin‐1‐ylsulfonyl)quinoline] gave an IC50 (HCT116) of over 50 µM, an IC50 (RAMOS) of over 50 µM and an IC50 (CCRF‐CEM) of over 50 µM. It also gave an IC50 (U2OS) of over 50 µM, an IC50 (A549) of over 50 µM and an IC50 [1] of over 50 µM. The IC50 (K562) was over 50 µM, the IC50 (Jurkat) was over 50 µM and the IC50 [2] was over 50 µM. For the same compound, the IC50 (MOLT‐4) was over 50 µM.

In the case of `O=S(=O)(c1cc(-c2ccccc2F)cc2cccnc12)N1CCCCC1` [9c, 6‐(2‐fluorophenyl)‐8‐(piperidin‐1‐ylsulfonyl)quinoline], the IC50 (HCT116) is reported as over 50 µM, the IC50 (RAMOS) is reported as over 50 µM and the IC50 (CCRF‐CEM) is reported as over 50 µM. It also gave an IC50 (U2OS) of over 50 µM, an IC50 (A549) of over 50 µM and an IC50 [1] of over 50 µM. For the same compound, the IC50 (K562) was over 50 µM, the IC50 (Jurkat) was 12.7 ± 5.45 µM and the IC50 [2] was over 50 µM. The IC50 (MOLT‐4) was over 50 µM.

In the case of `O=S(=O)(c1cc(-c2ccccc2Br)cc2cccnc12)N1CCCCC1` [9d, 6‐(2‐bromophenyl)‐8‐(piperidin‐1‐ylsulfonyl)quinoline], the IC50 (HCT116) is reported as over 50 µM, the IC50 (RAMOS) is reported as 12.7 ± 3.71 µM and the IC50 (CCRF‐CEM) is reported as over 50 µM. The IC50 (U2OS) was over 50 µM, the IC50 (A549) was over 50 µM and the IC50 [1] was over 50 µM. The IC50 (K562) was over 50 µM, the IC50 (Jurkat) was 13.5 ± 6.25 µM and the IC50 [2] was over 50 µM. For the same compound, the IC50 (MOLT‐4) was over 50 µM.

Work on `O=S(=O)(c1cc(-c2ccc(O)cc2)cc2cccnc12)N1CCCCC1` [9e, 4‐(8‐(piperidin‐1‐ylsulfonyl)quinolin‐6‐yl)phenol] yielded an IC50 (HCT116) of over 50 µM, an IC50 (RAMOS) of 5.47 ± 1.71 µM and an IC50 (CCRF‐CEM) of 28.6 ± 7.64 µM. It also gave an IC50 (U2OS) of over 50 µM, an IC50 (A549) of over 50 µM and an IC50 [1] of over 50 µM. It also gave an IC50 (K562) of 5.47 ± 1.71 µM, an IC50 (Jurkat) of 7.43 ± 7.4 µM and an IC50 [2] of over 50 µM. The IC50 (MOLT‐4) was over 50 µM.

In the case of `O=S(=O)(c1cc(-c2ccc(O)c(F)c2)cc2cccnc12)N1CCCCC1` [9f, 2‐fluoro‐4‐(8‐(piperidin‐1‐ylsulfonyl)quinolin‐6‐yl)phenol], the IC50 (HCT116) is reported as over 50 µM, the IC50 (RAMOS) is reported as 9.69 ± 2.41 µM and the IC50 (CCRF‐CEM) is reported as 17.1 ± 4.64 µM. The IC50 (U2OS) was over 50 µM, the IC50 (A549) was over 50 µM and the IC50 [1] was over 50 µM. It also gave an IC50 (K562) of 9.69 ± 2.41 µM, an IC50 (Jurkat) of 13 ± 6.43 µM and an IC50 [2] of over 50 µM. It also gave an IC50 (MOLT‐4) of over 50 µM.

In the case of `O=S(=O)(c1cc(-c2cc(Cl)c(O)c(Cl)c2)cc2cccnc12)N1CCCCC1` [9g, 2,6‐dichloro‐4‐(8‐(piperidin‐1‐ylsulfonyl)quinolin‐6‐yl)phenol], the IC50 (HCT116) is reported as over 50 µM, the IC50 (RAMOS) is reported as over 50 µM and the IC50 (CCRF‐CEM) is reported as over 50 µM. It also gave an IC50 (U2OS) of over 50 µM, an IC50 (A549) of over 50 µM and an IC50 [1] of over 50 µM. For the same compound, the IC50 (K562) was over 50 µM, the IC50 (Jurkat) was over 50 µM and the IC50 [2] was over 50 µM. It also gave an IC50 (MOLT‐4) of over 50 µM.

Compound `COc1cc(-c2cc(S(=O)(=O)N3CCCCC3)c3ncccc3c2)cc(Cl)c1O` [9h, 2‐chloro‐6‐methoxy‐4‐(8‐(piperidin‐1‐ylsulfonyl)quinolin‐6‐yl)phenol] has an IC50 (HCT116) of over 50 µM, an IC50 (RAMOS) of over 50 µM and an IC50 (CCRF‐CEM) of over 50 µM. It also gave an IC50 (U2OS) of over 50 µM, an IC50 (A549) of over 50 µM and an IC50 [1] of over 50 µM. The IC50 (K562) was over 50 µM, the IC50 (Jurkat) was over 50 µM and the IC50 [2] was over 50 µM. It also gave an IC50 (MOLT‐4) of over 50 µM.

Work on `COc1cccc(-c2cc(S(=O)(=O)N3CCCCC3)c3ncccc3c2)c1` [9i, 6‐(3‐methoxyphenyl)‐8‐(piperidin‐1‐ylsulfonyl)quinoline] yielded an IC50 (HCT116) of over 50 µM, an IC50 (RAMOS) of over 50 µM and an IC50 (CCRF‐CEM) of 38.6 ± 4.64 µM. The IC50 (U2OS) was over 50 µM, the IC50 (A549) was over 50 µM and the IC50 [1] was over 50 µM. The IC50 (K562) was over 50 µM, the IC50 (Jurkat) was 8.43 ± 6.43 µM and the IC50 [2] was over 50 µM. For the same compound, the IC50 (MOLT‐4) was over 50 µM.

`Nc1cccc(-c2cc(S(=O)(=O)N3CCCCC3)c3ncccc3c2)c1` [9j, 3‐(8‐(piperidin‐1‐ylsulfonyl)quinolin‐6‐yl)aniline hydrochloride] gave an IC50 (HCT116) of over 50 µM, an IC50 (RAMOS) of over 50 µM and an IC50 (CCRF‐CEM) of over 50 µM. It also gave an IC50 (U2OS) of over 50 µM, an IC50 (A549) of over 50 µM and an IC50 [1] of over 50 µM. The IC50 (K562) was over 50 µM, the IC50 (Jurkat) was over 50 µM and the IC50 [2] was over 50 µM. The IC50 (MOLT‐4) was 5.57 ± 7.56 µM.

`N#Cc1cccc(-c2cc(S(=O)(=O)N3CCCCC3)c3ncccc3c2)c1` [9k, 3‐(8‐(piperidin‐1‐ylsulfonyl)quinolin‐6‐yl)benzonitrile] gave an IC50 (HCT116) of over 50 µM, an IC50 (RAMOS) of over 50 µM and an IC50 (CCRF‐CEM) of over 50 µM. For the same compound, the IC50 (U2OS) was over 50 µM, the IC50 (A549) was over 50 µM and the IC50 [1] was over 50 µM. The IC50 (K562) was over 50 µM, the IC50 (Jurkat) was over 50 µM and the IC50 [2] was over 50 µM. The IC50 (MOLT‐4) was over 50 µM.

`O=S(=O)(c1cc(-c2cccc(OC(F)(F)F)c2)cc2cccnc12)N1CCCCC1` [9l, 8‐(piperidin‐1‐ylsulfonyl)‐6‐(3‐(trifluoromethoxy)phenyl)quinolone] showed an IC50 (HCT116) of over 50 µM, an IC50 (RAMOS) of over 50 µM and an IC50 (CCRF‐CEM) of over 50 µM. It also gave an IC50 (U2OS) of over 50 µM, an IC50 (A549) of over 50 µM and an IC50 [1] of over 50 µM. For the same compound, the IC50 (K562) was over 50 µM, the IC50 (Jurkat) was 12.1 ± 6.43 µM and the IC50 [2] was over 50 µM. The IC50 (MOLT‐4) was over 50 µM.

`O=S(=O)(c1cc(-c2ccc(C(F)(F)F)cc2)cc2cccnc12)N1CCCCC1` [9m, 8‐(piperidin‐1‐ylsulfonyl)‐6‐(4‐(trifluoromethyl)phenyl)quinoline] showed an IC50 (HCT116) of over 50 µM, an IC50 (RAMOS) of 8.11 ± 1.29 µM and an IC50 (CCRF‐CEM) of over 50 µM. The IC50 (U2OS) was over 50 µM, the IC50 (A549) was over 50 µM and the IC50 [1] was over 50 µM. The IC50 (K562) was over 50 µM, the IC50 (Jurkat) was 11.3 ± 1.13 µM and the IC50 [2] was over 50 µM. The IC50 (MOLT‐4) was over 50 µM.

In the case of `O=S(=O)(c1cc(-c2ccnc(F)c2)cc2cccnc12)N1CCCCC1` [9n, 6‐(2‐fluoropyridin‐4‐yl)‐8‐(piperidin‐1‐ylsulfonyl)quinoline], the IC50 (HCT116) is reported as over 50 µM, the IC50 (RAMOS) is reported as 2.76 ± 0.79 µM and the IC50 (CCRF‐CEM) is reported as 19.4 ± 0.78 µM. It also gave an IC50 (U2OS) of over 50 µM, an IC50 (A549) of over 50 µM and an IC50 [1] of over 50 µM. For the same compound, the IC50 (K562) was over 50 µM, the IC50 (Jurkat) was over 50 µM and the IC50 [2] was over 50 µM. The IC50 (MOLT‐4) was over 50 µM.

For `COc1cc(-c2cc(S(=O)(=O)N3CCCCC3)c3ncccc3c2)ccn1` [9o, 6‐(2‐methoxypyridin‐4‐yl)‐8‐(piperidin‐1‐ylsulfonyl)quinoline], the IC50 (HCT116) was over 50 µM, the IC50 (RAMOS) was 6.76 ± 0.79 µM and the IC50 (CCRF‐CEM) was 15.3 ± 2.25 µM. For the same compound, the IC50 (U2OS) was over 50 µM, the IC50 (A549) was over 50 µM and the IC50 [1] was over 50 µM. It also gave an IC50 (K562) of over 50 µM, an IC50 (Jurkat) of 11.4 ± 3.49 µM and an IC50 [2] of over 50 µM. The IC50 (MOLT‐4) was over 50 µM.

Work on `O=S(=O)(c1cc(-c2ccc3nc[nH]c3c2)cc2cccnc12)N1CCCCC1` [9p, 6‐(1H‐benzo[d]imidazol‐6‐yl)‐8‐(piperidin‐1‐ylsulfonyl)quinoline hydrochloride] yielded an IC50 (HCT116) of over 50 µM, an IC50 (RAMOS) of over 50 µM and an IC50 (CCRF‐CEM) of 13.2 ± 1.25 µM. For the same compound, the IC50 (U2OS) was over 50 µM, the IC50 (A549) was over 50 µM and the IC50 [1] was over 50 µM. For the same compound, the IC50 (K562) was over 50 µM, the IC50 (Jurkat) was 21.2 ± 3.49 µM and the IC50 [2] was over 50 µM. For the same compound, the IC50 (MOLT‐4) was over 50 µM.
